Measured values published in paper PMC3545969, “Mutagenicity and antimutagenicity of (−)-hinokinin a trypanosomicidal compound measured by Salmonella microsome and comet assays” (BMC Complementary and Alternative Medicine, 2012).
Marks after values point to notes of the source that are not given here.

Key:
V79 cells [1] = assay: Comet assay, genotoxicity in V79 cells; type: cell-based, Chinese hamster; set-up: Class 0 / Class 1 / Class 2 / Class 3: unit not given here; settings: 3 h
Experimental: (§1) Chinese hamster lung fibroblasts (V79) were kindly supplied by Professor Cólus (Universidade Estadual de Londrina (UEL), Paraná, Brazil). Cells were maintained as monolayers in plastic culture flasks (25 cm^2) in HAM-F10 (Sigma-Aldrich) plus DMEM (Sigma-Aldrich, 1:1) culture medium supplemented with 10%; fetal bovine serum (Nutricell), antibiotics (0.01 mg mL^−1 streptomycin and 0.005 mg mL^−1 penicillin; Sigma-Aldrich) and 2.38 mg mL^−1 Hepes (Sigma-Aldrich), at 37°C in a BOD-type chamber. Under these conditions, the average cell cycle time was 12 h.
(§2) HK was first dissolved in a mixture of methanol (100 μL) and distilled water (900 μL). The final concentration of methanol in the culture was 0.1%;. The choice of concentrations was based on the results of previous experiments with HK [12]. In the experiments, 3 × 10^5 cells (V79) were seeded into tissue-culture flasks, incubated for two cycles (24 h) in complete HAM-F10/DMEM medium, washed with phosphate buffer saline (PBS), and then subjected to one of the following treatments, in serum-free medium, for 3 h. To assess genotoxicity, the cells were treated with each concentration of HK alone, while for antigenotoxicity, they were treated with the mutagen DXR (0.3 μM) in combination with each HK concentration. Positive (DXR) and negative controls were also included in the test. At the end of the treatment, the cells were washed with ice-cold PBS and trypsinized with 200 μL trypsin. After 3 min, the cells were gently resuspended in complete medium and 20 μL of the cell suspension was immediately used for the test.
(§3) The procedures described by Singh et al. were adopted, with minor modifications, as described in detail by Speit and Hartmann and reviewed by Burlinson et al.. Briefly, a microscope slide was covered with a base layer of 1.5%; normal-melting agarose (Invitrogen) and 20 μL of the test cells suspended in 120 μL 0.5%; low-melting agarose (Invitrogen) at 37°C was then spread over the base layer. A coverslip was added and the agarose allowed to solidify at 4°C for 15 min. Next, the coverslip was gently removed and the slides were immersed in freshly prepared lysing solution consisting of 89 mL stock solution (2.5 M NaCl, 100 mM EDTA, 10 mM Tris, pH 10.0, and 1%; sodium lauryl sarcosine), 10 mL DMSO and 1 mL Triton X-100, pH 10.0, at 4°C, for at least 20 h, protected from light. At the end of this period, the slides were transferred to an electrophoresis chamber containing a high pH (>13.0) buffer (300 mM NaOH, 1 mM EDTA) and incubated at 4°C for 20 min to allow the DNA to unwind. A current of 25 V (1.0 V cm^−1, 300 mA) was applied for 20 min. The slides were then submerged in a neutralization buffer (0.4 M Tris - HCl, pH 7.5) for 15 min, dried at room temperature and fixed in 100%; ethanol for 10 min.
(§4) The slides were stained with 100 μL ethidium bromide (20 μg ml^−1) and covered with a coverslip. All the slides in the experiment were coded before analysis. The stained nucleoids were immediately evaluated at 1000x magnification under a Nikon fluorescence microscope fitted with a 515–560 nm excitation filter and a 590 nm barrier filter.
(§5) For each treatment, the extent and distribution of DNA damage indicated by the comet assay were evaluated by examining 100 randomly selected and non-overlapping cells on the slides (i.e. 300 nucleoids per treatment). For each slide, the cells were visually scored and allocated to one of four classes (0, 1, 2 and 3), according to tail size, as follows: class 0, undamaged, no tail; class 1, a short tail whose length was smaller than the diameter of the comet head (nucleus); class 2, tail length between 1 and 2 times the diameter of the head; and class 3, maximally damaged: a long tail measuring more than twice the diameter of the head. The few comets containing no head and those with almost all DNA in the tail, or with a very wide tail, were excluded from the analysis since they may arise from dead cells. […]

V79 cells [2] = assay: Comet assay, antigenotoxicity against DXR in V79 cells; type: cell-based, Chinese hamster; set-up: Class 0 / Class 1 / Class 2 / Class 3: unit not given here; settings: 3 h
Experimental: as §1, §2, §3, §4, §5

rat peripheral blood = tested on: rat peripheral blood; set-up: method as in PMID 17141387; settings: cited from earlier work

## O=C1OC[C@H](Cc2ccc3c(c2)OCO3)[C@H]1Cc1ccc2c(c1)OCO2 [HK, (−)-hinokinin]
V79 cells [1]; HK 0.5 μM alone
  Class 0: 81.6 ± 4.9
  Class 1: 12.3± 3.5
  Class 2: 4.3 ± 3.7
  Score: 26.0 ± 13.2
V79 cells [1]; HK 1.0 μM alone
  Class 0: 87.0 ± 5.1
  Class 1: 11.0 ± 5.2
  Class 2: 1.3 ± 0.5
  Class 3: 0
  Score: 13.0 ± 5.0
V79 cells [1]; HK 2.0 μM alone
  Class 0: 83.0 ± 3.7
  Class 1: 14.0 ± 2.5
  Class 2: 2.0 ± 2.0
  Class 3: 0
  Score: 18.0 ± 5.0
V79 cells [1]; HK 32 μM alone
  Class 0: 89.0 ± 2.0
  Class 1: 10.0 ± 2.0
  Class 2: 0.3 ± 0.5
  Class 3: 0.6 ± 1.1
  Score: 9.6 ± 2.3
V79 cells [1]; HK 64 μM alone
  Class 0: 88.0 ± 3.6
  Class 1: 11.0 ± 4.0
  Class 2: 0.6 ± 1.0
  Class 3: 1.0 ± 1.0
  Score: 13.0 ± 3.4
V79 cells [2]; HK 0.5 μM + DXR 0.3 μM
  Class 0: 73.0 ± 7.0
  Class 1: 20.0 ± 7.5
  Class 2: 4.6 ± 1.5
  Class 3: 2.0 ± 2.0
  Reduction % (of DXR-induced DNA damage): 76.0%
  Score: 36.0 ± 6.1^a,b
V79 cells [2]; HK 1.0 μM + DXR 0.3 μM
  Class 0: 68.0 ± 2.0
  Class 1: 20.6 ± 2.5
  Class 2: 8.0 ± 2.0
  Class 3: 3.3 ± 0.5
  Reduction % (of DXR-induced DNA damage): 60.8%
  Score: 46.0 ± 3.0^a,b
V79 cells [2]; HK 2.0 μM + DXR 0.3 μM
  Class 0: 65.0 ± 6.8
  Class 1: 27.0 ± 6.6
  Class 2: 4.3 ± 2.3
  Class 3: 2.6 ± 1.6
  Reduction % (of DXR-induced DNA damage): 63.4%
  Score: 44.3 ± 9.2^a,b
V79 cells [2]; HK 32 μM + DXR 0.3 μM
  Class 0: 35.0 ± 5.0
  Class 1: 33.0 ± 3.0
  Class 2: 30.0 ± 4.1^b
  Class 3: 1.0 ± 1.0
  Score: 97.0 ± 10.0^a
V79 cells [2]; HK 64 μM + DXR 0.3 μM
  Class 0: 32.0 ± 6.1
  Class 1: 39.0 ± 3.7
  Class 2: 26.0 ± 2.0
  Class 3: 2.0 ± 2.0
  Score: 97.0 ± 10.0^a
V79 cells [2]; HK […] + DXR 0.3 μM
  Class 0: 28.0 ± 6.6
  Class 1: 40.0 ± 1.0
  Class 2: 29.0 ± 5.2^b
  Class 3: 3.0 ± 2.5
  Score: 106.0 ± 16.0^a
Rat peripheral blood
  effect on chromosome damage induced by DXR, micronucleus test: effective in reducing the chromosome damage induced by DXR
  genotoxic effect, micronucleus test: no genotoxic effect
